Patent US10208074B2, “Pyrazole compounds and method for making and using the compounds” (Rigel Pharmaceuticals, Inc., priority 2015, dated 2019)
pEC50: −log10 of the molar value.

What was measured:
[1] = tested on: IL-23 (p19/p40); test: IL23-p19 ELISA, Dendritic, LPS (compound screening using DC cells); assay type: cell-based, Human; settings: Homo sapiens, 18 h, PBMC-derived DC cells, IFNγ primed, LPS 1 μg/ml, 18 hours, 10 pt; read-out: IL23-p19 ELISA, Dendritic, LPS, 10 pt, EC50
Procedure, shortened: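 IL-23 in supernatants quantified by sandwich ELISA (anti-p19 capture, biotinylated anti-p40 detection, chemiluminescent readout) after 18 h LPS (1 μg/ml) stimulation. Cells were monocyte-derived DCs (GM-CSF/IL-4, 7 d), IFNγ-primed 24 h and given compound 1 h before LPS; viability by CellTiter Glo.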

[2] = tested on: IL-23p19; test: LPS induced IL23p19 in THP-1 cells (with IFNγ primed) assay; assay type: cell-based, Human; settings: Homo sapiens, THP-1, 18 h, THP-1 cells, IFNγ primed, LPS 1 ug/mL, 18 hours, 10 pt; read-out: IL23-p19 ELISA, THP1-IFNy, LPS, 10 pt EC50
Procedure, shortened: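 Readout is secreted IL-23p19, quantified by chemiluminescent sandwich ELISA after 18 h LPS (1 ug/mL) stimulation of THP-1 cells that had been IFNγ-primed (50 ng/mL, ~18 h) and given compound 1 h beforehand at 37 °C. EC50 derived by curve fit; cytotoxicity tracked with Cell Titer Glo.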

pEC50 [1] | pEC50 [2] | SMILES
6.87 | 7.40 | O=C(Nc1cn(C2CCOCC2)nc1-c1ccccn1)c1coc(-c2cn[nH]c2)n1 [III-2, 2-(1H-pyrazol-4-yl)-N-(3-(pyridin-2-yl)-1-(tetrahydro-2H-pyran-4-yl)-1H-pyrazol-4-yl)oxazole-4-carboxamide]
6.77 | 6.61 | CCOCCn1cc(NC(=O)c2coc(-c3cn[nH]c3)n2)c(-c2ccccn2)n1 [III-3, N-(1-(2-ethoxyethyl)-3-(pyridin-2-yl)-1H-pyrazol-4-yl)-2-(1H-pyrazol-4-yl)oxazole-4-carboxamide]
7.43 | 7.36 | CCO[C@H]1C[C@@H](n2cc(NC(=O)c3coc(-c4cn[nH]c4)n3)c(-c3ccccn3)n2)C1 [III-4, N-(1-((1s,3s)-3-ethoxycyclobutyl)-3-(pyridin-2-yl)-1H-pyrazol-4-yl)-2-(1H-pyrazol-4-yl)oxazole-4-carboxamide]
7.15 | 6.57 | O=C(Nc1cn(C2CCC2)nc1-c1ccccn1)c1coc(-c2cn[nH]c2)n1 [III-5, N-(1-cyclobutyl-3-(pyridin-2-yl)-1H-pyrazol-4-yl)-2-(1H-pyrazol-4-yl)oxazole-4-carboxamide]
6.66 | 6.62 | COCCOCCn1cc(NC(=O)c2coc(-c3cc[nH]n3)n2)c(-c2ccccn2)n1 [III-6, N-(1-(2-(2-methoxyethoxy)ethyl)-3-(pyridin-2-yl)-1H-pyrazol-4-yl)-2-(1H-pyrazol-3-yl)oxazole-4-carboxamide]
6.35 | 7.07 | O=C(Nc1cn(CCOCC(F)(F)F)nc1-c1ccccn1)c1coc(-c2cc[nH]n2)n1 [III-7, 2-(1H-pyrazol-3-yl)-N-(3-(pyridin-2-yl)-1-(2-(2,2,2-trifluoroethoxy)ethyl)-1H-pyrazol-4-yl)oxazole-4-carboxamide]
6.79 | 6.40 | O=C(Nc1cn(CCOCC(F)F)nc1-c1ccccn1)c1coc(-c2cn[nH]c2)n1 [III-8, N-(1-(2-(2,2-difluoroethoxy)ethyl)-3-(pyridin-2-yl)-1H-pyrazol-4-yl)-2-(1H-pyrazol-4-yl)oxazole-4-carboxamide]
